Experimental data from ChEMBL document CHEMBL3045892, “Synthesis and evaluation of in vitro antimicrobial activity of novel 2,3-disubstituted-4-thiazolidinones from fatty acid hydrazides” (2013).
Values after ≈ are worked out from the molar mass of the structure shown.

tested on: Aspergillus fumigatus; assay: Antifungal activity against Aspergillus fumigatus by disk diffusion method; type: functional; settings: not given

Compound | diameter of the inhibition zone (DIZ) [mm]
CCCCCCCCCCCCCCCC(=O)NN1C(=O)CSC1c1ccc(Cl)cc1 (stereo unspecified) | 22.6
COC1=CC(=O)C[C@@H](C)[C@]12Oc1c(Cl)c(OC)cc(OC)c1C2=O [GRISEOFULVIN] | 27

tested on: Escherichia coli; assay: Antibacterial activity against Escherichia coli ATCC 25922 after 24 hr by disk diffusion method; type: functional; settings: not given

Compound | diameter of the inhibition zone (DIZ) [mm]
CCCCCCCCCCCCCCCC(=O)NN1C(=O)CSC1c1ccc(Cl)cc1 (stereo unspecified) | 23.3

tested on: Klebsiella pneumoniae; assay: Antibacterial activity against Klebsiella pneumoniae clinical isolate after 24 hr by broth dilution method; type: functional; settings: not given

MIC [µg/mL] | Compound
12.5 (≈ 26.8 µM) | CCCCCCCCCCCCCCCC(=O)NN1C(=O)CSC1c1ccc(Cl)cc1 (stereo unspecified)

tested on: Klebsiella pneumoniae; assay: Antibacterial activity against Klebsiella pneumoniae clinical isolate after 24 hr by disk diffusion method; type: functional; settings: not given

Compound | diameter of the inhibition zone (DIZ) [mm]
CCCCCCCCCCCCCCCC(=O)NN1C(=O)CSC1c1ccc(Cl)cc1 (stereo unspecified) | 21.4

tested on: Escherichia coli; assay: Antibacterial activity against Escherichia coli ATCC 25922 incubated for 24 hr followed by subculturing measured after 18 to 24 hr; type: functional; settings: not given

Compound | MBC [µg/mL]
CCCCCCCCCCCCCCCC(=O)NN1C(=O)CSC1c1ccc(Cl)cc1 (stereo unspecified) | 25 (≈ 53.5 µM)

tested on: Streptococcus pyogenes; assay: Antibacterial activity against Streptococcus pyogenes after 24 hr by broth dilution method; type: functional; settings: not given

MIC [µg/mL] | Compound
12.5 (≈ 26.8 µM) | CCCCCCCCCCCCCCCC(=O)NN1C(=O)CSC1c1ccc(Cl)cc1 (stereo unspecified)

tested on: Pseudomonas aeruginosa; assay: Antibacterial activity against Pseudomonas aeruginosa ATCC 27853 incubated for 24 hr followed by subculturing measured after 18 to 24 hr; type: functional; settings: not given

Compound | MBC [µg/mL]
CCCCCCCCCCCCCCCC(=O)NN1C(=O)CSC1c1ccc(Cl)cc1 (stereo unspecified) | 25 (≈ 53.5 µM)

tested on: Trichophyton mentagrophytes; assay: Antifungal activity against Trichophyton mentagrophytes after 48 hr; type: functional; settings: not given

MIC [µg/mL] | Compound
6.25 (≈ 13.4 µM) | CCCCCCCCCCCCCCCC(=O)NN1C(=O)CSC1c1ccc(Cl)cc1 (stereo unspecified)
6.25 (≈ 17.7 µM) | COC1=CC(=O)C[C@@H](C)[C@]12Oc1c(Cl)c(OC)cc(OC)c1C2=O [GRISEOFULVIN]

tested on: Candida albicans; assay: Antifungal activity against Candida albicans incubated for 48 hr followed by subculturing measured after 48 hr; type: functional; settings: not given

Compound | MFC [µg/mL]
CCCCCCCCCCCCCCCC(=O)NN1C(=O)CSC1c1ccc(Cl)cc1 (stereo unspecified) | 12.5 (≈ 26.8 µM)
COC1=CC(=O)C[C@@H](C)[C@]12Oc1c(Cl)c(OC)cc(OC)c1C2=O [GRISEOFULVIN] | 25 (≈ 70.9 µM)

tested on: Streptococcus pyogenes; assay: Antibacterial activity against Streptococcus pyogenes incubated for 24 hr followed by subculturing measured after 18 to 24 hr; type: functional; settings: not given

Compound | MBC [µg/mL]
CCCCCCCCCCCCCCCC(=O)NN1C(=O)CSC1c1ccc(Cl)cc1 (stereo unspecified) | 25 (≈ 53.5 µM)

tested on: Candida albicans; assay: Antifungal activity against Candida albicans after 48 hr; type: functional; settings: not given

MIC [µg/mL] | Compound
6.25 (≈ 13.4 µM) | CCCCCCCCCCCCCCCC(=O)NN1C(=O)CSC1c1ccc(Cl)cc1 (stereo unspecified)
6.25 (≈ 17.7 µM) | COC1=CC(=O)C[C@@H](C)[C@]12Oc1c(Cl)c(OC)cc(OC)c1C2=O [GRISEOFULVIN]

tested on: Candida albicans; assay: Antifungal activity against Candida albicans by disk diffusion method; type: functional; settings: not given

Compound | diameter of the inhibition zone (DIZ) [mm]
CCCCCCCCCCCCCCCC(=O)NN1C(=O)CSC1c1ccc(Cl)cc1 (stereo unspecified) | 27.3
COC1=CC(=O)C[C@@H](C)[C@]12Oc1c(Cl)c(OC)cc(OC)c1C2=O [GRISEOFULVIN] | 30

tested on: Aspergillus fumigatus; assay: Antifungal activity against Aspergillus fumigatus after 48 hr; type: functional; settings: not given

MIC [µg/mL] | Compound
6.25 (≈ 13.4 µM) | CCCCCCCCCCCCCCCC(=O)NN1C(=O)CSC1c1ccc(Cl)cc1 (stereo unspecified)
12.5 (≈ 35.4 µM) | COC1=CC(=O)C[C@@H](C)[C@]12Oc1c(Cl)c(OC)cc(OC)c1C2=O [GRISEOFULVIN]

tested on: Pseudomonas aeruginosa; assay: Antibacterial activity against Pseudomonas aeruginosa ATCC 27853 after 24 hr by broth dilution method; type: functional; settings: ATCC 27853, 24 h

MIC [µg/mL] | Compound
12.5 (≈ 26.8 µM) | CCCCCCCCCCCCCCCC(=O)NN1C(=O)CSC1c1ccc(Cl)cc1 (stereo unspecified)

tested on: Aspergillus fumigatus; assay: Antifungal activity against Aspergillus fumigatus incubated for 48 hr followed by subculturing measured after 48 hr; type: functional; settings: not given

Compound | MFC [µg/mL]
CCCCCCCCCCCCCCCC(=O)NN1C(=O)CSC1c1ccc(Cl)cc1 (stereo unspecified) | 25 (≈ 53.5 µM)
COC1=CC(=O)C[C@@H](C)[C@]12Oc1c(Cl)c(OC)cc(OC)c1C2=O [GRISEOFULVIN] | 12.5 (≈ 35.4 µM)

tested on: Pseudomonas aeruginosa; assay: Antibacterial activity against Pseudomonas aeruginosa ATCC 27853 after 24 hr by disk diffusion method; type: functional; settings: not given

Compound | diameter of the inhibition zone (DIZ) [mm]
CCCCCCCCCCCCCCCC(=O)NN1C(=O)CSC1c1ccc(Cl)cc1 (stereo unspecified) | 27.2

tested on: Talaromyces marneffei; assay: Antifungal activity against Talaromyces marneffei by disk diffusion method; type: functional; settings: not given

Compound | diameter of the inhibition zone (DIZ) [mm]
CCCCCCCCCCCCCCCC(=O)NN1C(=O)CSC1c1ccc(Cl)cc1 (stereo unspecified) | 15.2
COC1=CC(=O)C[C@@H](C)[C@]12Oc1c(Cl)c(OC)cc(OC)c1C2=O [GRISEOFULVIN] | 20

tested on: Trichophyton mentagrophytes; assay: Antifungal activity against Trichophyton mentagrophytes incubated for 48 hr followed by subculturing measured after 48 hr; type: functional; settings: not given

Compound | MFC [µg/mL]
CCCCCCCCCCCCCCCC(=O)NN1C(=O)CSC1c1ccc(Cl)cc1 (stereo unspecified) | 25 (≈ 53.5 µM)
COC1=CC(=O)C[C@@H](C)[C@]12Oc1c(Cl)c(OC)cc(OC)c1C2=O [GRISEOFULVIN] | 25 (≈ 70.9 µM)

tested on: Talaromyces marneffei; assay: Antifungal activity against Talaromyces marneffei after 48 hr; type: functional; settings: not given

MIC [µg/mL] | Compound
12.5 (≈ 26.8 µM) | CCCCCCCCCCCCCCCC(=O)NN1C(=O)CSC1c1ccc(Cl)cc1 (stereo unspecified)
12.5 (≈ 35.4 µM) | COC1=CC(=O)C[C@@H](C)[C@]12Oc1c(Cl)c(OC)cc(OC)c1C2=O [GRISEOFULVIN]

tested on: Klebsiella pneumoniae; assay: Antibacterial activity against Klebsiella pneumoniae clinical isolate incubated for 24 hr followed by subculturing measured after 18 to 24 hr; type: functional; settings: not given

Compound | MBC [µg/mL]
CCCCCCCCCCCCCCCC(=O)NN1C(=O)CSC1c1ccc(Cl)cc1 (stereo unspecified) | 50 (≈ 107 µM)

tested on: Escherichia coli; assay: Antibacterial activity against Escherichia coli ATCC 25922 after 24 hr by broth dilution method; type: functional; settings: ATCC 25922, 24 h

MIC [µg/mL] | Compound
12.5 (≈ 26.8 µM) | CCCCCCCCCCCCCCCC(=O)NN1C(=O)CSC1c1ccc(Cl)cc1 (stereo unspecified)

tested on: Trichophyton mentagrophytes; assay: Antifungal activity against Trichophyton mentagrophytes by disk diffusion method; type: functional; settings: not given

Compound | diameter of the inhibition zone (DIZ) [mm]
CCCCCCCCCCCCCCCC(=O)NN1C(=O)CSC1c1ccc(Cl)cc1 (stereo unspecified) | 19.5
COC1=CC(=O)C[C@@H](C)[C@]12Oc1c(Cl)c(OC)cc(OC)c1C2=O [GRISEOFULVIN] | 24

tested on: Streptococcus pyogenes; assay: Antibacterial activity against Streptococcus pyogenes after 24 hr by disk diffusion method; type: functional; settings: not given

Compound | diameter of the inhibition zone (DIZ) [mm]
CCCCCCCCCCCCCCCC(=O)NN1C(=O)CSC1c1ccc(Cl)cc1 (stereo unspecified) | 20.4

tested on: Talaromyces marneffei; assay: Antifungal activity against Talaromyces marneffei incubated for 48 hr followed by subculturing measured after 48 hr; type: functional; settings: not given

Compound | MFC [µg/mL]
CCCCCCCCCCCCCCCC(=O)NN1C(=O)CSC1c1ccc(Cl)cc1 (stereo unspecified) | 25 (≈ 53.5 µM)
COC1=CC(=O)C[C@@H](C)[C@]12Oc1c(Cl)c(OC)cc(OC)c1C2=O [GRISEOFULVIN] | 25 (≈ 70.9 µM)
